From ChEMBL document CHEMBL4507258 (2021)

What was measured:
[1] = target: MAP/microtubule affinity-regulating kinase 4 (Homo sapiens) (UniProt Q96L34); conditions: Compound concentration 1000.0 nM
[2] = target: Inhibitor of nuclear factor kappa-B kinase subunit alpha (Homo sapiens) (UniProt O15111); conditions: Compound concentration 1000.0 nM
[3] = target: 5-hydroxytryptamine receptor 2A (Homo sapiens) (UniProt P28223); conditions: Compound concentration 10.0 uM
[4] = target: Cyclin-dependent kinase 8 (Homo sapiens) (UniProt P49336); conditions: Compound concentration 1000.0 nM
[5] = target: Casein kinase I isoform gamma-2 (Homo sapiens) (UniProt P78368); conditions: Compound concentration 1000.0 nM
[6] = target: Ephrin type-A receptor 8 (Homo sapiens) (UniProt P29322); conditions: Compound concentration 1000.0 nM
[7] = target: Aurora kinase C (Homo sapiens) (UniProt Q9UQB9); conditions: Compound concentration 1000.0 nM
[8] = target: Platelet-derived growth factor receptor beta (Homo sapiens) (UniProt P09619); conditions: Compound concentration 1000.0 nM
[9] = target: Protein kinase C epsilon type (Homo sapiens) (UniProt Q02156); conditions: Compound concentration 1000.0 nM
[10] = test system: Receptor-type tyrosine-protein kinase FLT3 (Homo sapiens), P36888 [UNDEFINED MUTATION]; conditions: Compound concentration 1000.0 nM
[11] = target: Proto-oncogene tyrosine-protein kinase Src (Homo sapiens) (UniProt P12931); conditions: Compound concentration 1000.0 nM
[12] = target: Ephrin type-A receptor 6 (Homo sapiens) (UniProt Q9UF33); conditions: Compound concentration 1000.0 nM
[13] = target: MAP kinase-interacting serine/threonine-protein kinase 2 (Homo sapiens) (UniProt Q9HBH9); conditions: Compound concentration 1000.0 nM
[14] = target: Serine/threonine-protein kinase tousled-like 1 (Homo sapiens) (UniProt Q9UKI8); conditions: Compound concentration 1000.0 nM
[15] = target: Calcium/calmodulin-dependent protein kinase type II subunit beta (Homo sapiens) (UniProt Q13554); conditions: Compound concentration 1000.0 nM
[16] = target: Interleukin-1 receptor-associated kinase 4 (Homo sapiens) (UniProt Q9NWZ3); conditions: Compound concentration 1000.0 nM
[17] = target: Serine/threonine-protein kinase WNK2 (Homo sapiens) (UniProt Q9Y3S1); conditions: Compound concentration 1000.0 nM
[18] = target: Serine/threonine-protein kinase 26 (Homo sapiens) (UniProt Q9P289); conditions: Compound concentration 1000.0 nM
[19] = target: Tyrosine-protein kinase JAK3 (Homo sapiens) (UniProt P52333); conditions: Compound concentration 1000.0 nM
[20] = target: Serine/threonine-protein kinase 38 (Homo sapiens) (UniProt Q15208); conditions: Compound concentration 1000.0 nM
[21] = test system: Receptor-type tyrosine-protein kinase FLT3 (Homo sapiens), P36888 [D835H]; conditions: Compound concentration 1000.0 nM
[22] = target: Mitogen-activated protein kinase 4 (Homo sapiens) (UniProt P31152); conditions: Compound concentration 1000.0 nM
[23] = target: Ankyrin repeat and protein kinase domain-containing protein 1 (Homo sapiens) (UniProt Q8NFD2); conditions: Compound concentration 1000.0 nM
[24] = target: Ribosomal protein S6 kinase alpha-4 (Homo sapiens) (UniProt O75676); conditions: Compound concentration 1000.0 nM
[25] = target: Tyrosine-protein kinase JAK1 (Homo sapiens) (UniProt P23458); conditions: Compound concentration 1000.0 nM
[26] = target: Serine/threonine-protein kinase 35 (Homo sapiens) (UniProt Q8TDR2); conditions: Compound concentration 1000.0 nM
[27] = test system: eIF-2-alpha kinase GCN2 (Homo sapiens), Q9P2K8 [S808G]; conditions: Compound concentration 1000.0 nM
[28] = target: Cyclin-dependent kinase 17 (Homo sapiens) (UniProt Q00537); conditions: Compound concentration 1000.0 nM
[29] = target: Non-receptor tyrosine-protein kinase TYK2 (Homo sapiens) (UniProt P29597); conditions: Compound concentration 1000.0 nM
[30] = target: Vascular endothelial growth factor receptor 2 (Homo sapiens) (UniProt P35968); conditions: Compound concentration 1000.0 nM
[31] = target: Histamine H3 receptor (Homo sapiens) (UniProt Q9Y5N1); conditions: Compound concentration 10.0 uM
[32] = target: Mitogen-activated protein kinase 13 (Homo sapiens) (UniProt O15264); conditions: Compound concentration 1000.0 nM
[33] = target: MAP kinase-activated protein kinase 2 (Homo sapiens) (UniProt P49137); conditions: Compound concentration 1000.0 nM
[34] = target: Vascular endothelial growth factor receptor 1 (Homo sapiens) (UniProt P17948); conditions: Compound concentration 1000.0 nM
[35] = target: D(1B) dopamine receptor (Homo sapiens) (UniProt P21918); conditions: Compound concentration 10.0 uM
[36] = target: Rhodopsin kinase GRK7 (Homo sapiens) (UniProt Q8WTQ7); conditions: Compound concentration 1000.0 nM
[37] = target: Cyclin-dependent kinase 18 (Homo sapiens) (UniProt Q07002); conditions: Compound concentration 1000.0 nM
[38] = target: Transient receptor potential cation channel subfamily M member 6 (Homo sapiens) (UniProt Q9BX84); conditions: Compound concentration 1000.0 nM
[39] = target: Testis-specific serine/threonine-protein kinase 3 (Homo sapiens) (UniProt Q96PN8); conditions: Compound concentration 1000.0 nM
[40] = target: Myosin-IIIb (Homo sapiens) (UniProt Q8WXR4); conditions: Compound concentration 1000.0 nM
[41] = target: Serine/threonine-protein kinase 32A (Homo sapiens) (UniProt Q8WU08); conditions: Compound concentration 1000.0 nM
[42] = test system: Epidermal growth factor receptor (Homo sapiens), P00533 [UNDEFINED MUTATION]; conditions: Compound concentration 1000.0 nM
[43] = target: Calcium/calmodulin-dependent protein kinase type 1D (Homo sapiens) (UniProt Q8IU85); conditions: Compound concentration 1000.0 nM
[44] = target: Serine/threonine-protein kinase ICK (Homo sapiens) (UniProt Q9UPZ9); conditions: Compound concentration 1000.0 nM
[45] = target: Dual specificity tyrosine-phosphorylation-regulated kinase 2 (Homo sapiens) (UniProt Q92630); conditions: Compound concentration 1000.0 nM

Serine/threonine-protein kinase 26 (Homo sapiens), sequence (Q9P289 2-416 limits assumed): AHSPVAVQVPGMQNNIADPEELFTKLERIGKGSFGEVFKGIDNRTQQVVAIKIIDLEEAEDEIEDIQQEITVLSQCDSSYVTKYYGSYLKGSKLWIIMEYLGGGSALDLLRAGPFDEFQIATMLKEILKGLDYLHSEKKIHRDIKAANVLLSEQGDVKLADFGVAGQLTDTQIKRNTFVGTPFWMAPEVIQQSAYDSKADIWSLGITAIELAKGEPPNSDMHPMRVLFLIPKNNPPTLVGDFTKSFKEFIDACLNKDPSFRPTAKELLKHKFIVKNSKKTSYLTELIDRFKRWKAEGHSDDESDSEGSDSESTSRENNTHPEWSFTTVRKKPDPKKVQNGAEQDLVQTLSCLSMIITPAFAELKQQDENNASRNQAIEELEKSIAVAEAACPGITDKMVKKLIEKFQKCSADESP
5-hydroxytryptamine receptor 2A (Homo sapiens), sequence (P28223 whole entry): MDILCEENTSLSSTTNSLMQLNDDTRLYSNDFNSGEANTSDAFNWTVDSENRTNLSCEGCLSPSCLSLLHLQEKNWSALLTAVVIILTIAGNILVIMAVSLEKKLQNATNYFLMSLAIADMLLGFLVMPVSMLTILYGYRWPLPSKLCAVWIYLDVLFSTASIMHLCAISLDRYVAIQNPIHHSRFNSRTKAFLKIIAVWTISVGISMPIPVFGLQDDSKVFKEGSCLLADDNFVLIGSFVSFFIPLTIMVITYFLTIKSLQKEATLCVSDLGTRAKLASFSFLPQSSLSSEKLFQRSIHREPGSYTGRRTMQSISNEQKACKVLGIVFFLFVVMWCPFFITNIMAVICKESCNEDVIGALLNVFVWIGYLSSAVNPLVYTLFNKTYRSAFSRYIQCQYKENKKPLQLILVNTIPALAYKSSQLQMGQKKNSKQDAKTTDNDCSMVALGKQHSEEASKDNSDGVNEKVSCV
Cyclin-dependent kinase 18 (Homo sapiens), sequence (Q07002 whole entry): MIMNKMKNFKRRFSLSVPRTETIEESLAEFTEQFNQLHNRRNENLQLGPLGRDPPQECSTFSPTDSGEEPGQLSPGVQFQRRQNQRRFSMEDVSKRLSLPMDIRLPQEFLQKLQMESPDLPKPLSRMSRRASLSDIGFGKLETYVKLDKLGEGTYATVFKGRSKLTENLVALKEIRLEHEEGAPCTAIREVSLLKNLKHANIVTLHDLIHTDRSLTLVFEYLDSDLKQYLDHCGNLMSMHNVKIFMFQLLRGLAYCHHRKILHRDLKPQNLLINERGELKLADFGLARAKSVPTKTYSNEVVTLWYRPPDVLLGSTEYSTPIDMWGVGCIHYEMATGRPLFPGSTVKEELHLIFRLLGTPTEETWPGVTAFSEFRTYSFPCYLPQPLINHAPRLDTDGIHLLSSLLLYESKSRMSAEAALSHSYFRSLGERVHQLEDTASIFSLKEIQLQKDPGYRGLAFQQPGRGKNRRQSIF
Protein kinase C epsilon type (Homo sapiens), sequence (Q02156 whole entry): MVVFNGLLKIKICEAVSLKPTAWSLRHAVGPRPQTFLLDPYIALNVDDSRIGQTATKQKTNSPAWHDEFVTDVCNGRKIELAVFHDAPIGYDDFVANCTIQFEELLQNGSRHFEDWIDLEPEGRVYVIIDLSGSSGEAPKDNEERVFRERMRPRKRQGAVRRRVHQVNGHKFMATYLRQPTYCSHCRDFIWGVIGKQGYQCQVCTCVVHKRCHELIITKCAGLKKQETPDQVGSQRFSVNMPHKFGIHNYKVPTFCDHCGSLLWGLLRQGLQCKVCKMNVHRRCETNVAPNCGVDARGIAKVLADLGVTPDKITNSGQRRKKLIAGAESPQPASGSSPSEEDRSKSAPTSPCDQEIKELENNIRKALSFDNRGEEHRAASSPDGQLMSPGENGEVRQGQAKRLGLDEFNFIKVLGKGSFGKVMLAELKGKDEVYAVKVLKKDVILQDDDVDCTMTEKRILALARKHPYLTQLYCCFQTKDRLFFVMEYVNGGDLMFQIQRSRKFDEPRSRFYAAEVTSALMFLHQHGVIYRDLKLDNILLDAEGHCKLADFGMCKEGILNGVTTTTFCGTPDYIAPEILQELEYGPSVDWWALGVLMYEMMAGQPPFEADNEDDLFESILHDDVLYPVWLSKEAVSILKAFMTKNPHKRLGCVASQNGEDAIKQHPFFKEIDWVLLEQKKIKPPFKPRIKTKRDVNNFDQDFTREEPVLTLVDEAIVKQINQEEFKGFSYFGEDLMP
Calcium/calmodulin-dependent protein kinase type 1D (Homo sapiens), sequence (Q8IU85 whole entry, looked up): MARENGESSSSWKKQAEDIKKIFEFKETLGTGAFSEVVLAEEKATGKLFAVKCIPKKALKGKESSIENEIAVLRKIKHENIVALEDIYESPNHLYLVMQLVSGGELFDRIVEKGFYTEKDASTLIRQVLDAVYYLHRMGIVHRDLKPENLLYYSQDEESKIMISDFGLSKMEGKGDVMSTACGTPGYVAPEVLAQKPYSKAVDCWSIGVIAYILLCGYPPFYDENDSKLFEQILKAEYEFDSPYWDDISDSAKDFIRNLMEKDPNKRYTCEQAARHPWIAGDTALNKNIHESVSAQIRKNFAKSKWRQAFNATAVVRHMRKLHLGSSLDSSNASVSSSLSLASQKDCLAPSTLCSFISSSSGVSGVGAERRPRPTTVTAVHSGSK
MAP kinase-interacting serine/threonine-protein kinase 2 (Homo sapiens), sequence (Q9HBH9 whole entry, looked up): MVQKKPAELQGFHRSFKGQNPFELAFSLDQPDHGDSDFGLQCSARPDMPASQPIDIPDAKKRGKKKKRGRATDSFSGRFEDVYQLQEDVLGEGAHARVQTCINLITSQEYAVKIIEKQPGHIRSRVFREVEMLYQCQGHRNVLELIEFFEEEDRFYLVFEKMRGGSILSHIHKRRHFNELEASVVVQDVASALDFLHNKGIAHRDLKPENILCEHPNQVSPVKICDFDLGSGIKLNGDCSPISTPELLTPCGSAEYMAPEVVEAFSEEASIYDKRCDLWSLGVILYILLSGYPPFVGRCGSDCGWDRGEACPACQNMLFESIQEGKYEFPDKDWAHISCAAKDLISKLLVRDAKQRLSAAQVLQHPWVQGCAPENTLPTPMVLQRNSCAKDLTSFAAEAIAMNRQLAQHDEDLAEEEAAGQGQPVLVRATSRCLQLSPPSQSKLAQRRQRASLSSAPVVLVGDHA
MAP/microtubule affinity-regulating kinase 4 (Homo sapiens), sequence (Q96L34 whole entry): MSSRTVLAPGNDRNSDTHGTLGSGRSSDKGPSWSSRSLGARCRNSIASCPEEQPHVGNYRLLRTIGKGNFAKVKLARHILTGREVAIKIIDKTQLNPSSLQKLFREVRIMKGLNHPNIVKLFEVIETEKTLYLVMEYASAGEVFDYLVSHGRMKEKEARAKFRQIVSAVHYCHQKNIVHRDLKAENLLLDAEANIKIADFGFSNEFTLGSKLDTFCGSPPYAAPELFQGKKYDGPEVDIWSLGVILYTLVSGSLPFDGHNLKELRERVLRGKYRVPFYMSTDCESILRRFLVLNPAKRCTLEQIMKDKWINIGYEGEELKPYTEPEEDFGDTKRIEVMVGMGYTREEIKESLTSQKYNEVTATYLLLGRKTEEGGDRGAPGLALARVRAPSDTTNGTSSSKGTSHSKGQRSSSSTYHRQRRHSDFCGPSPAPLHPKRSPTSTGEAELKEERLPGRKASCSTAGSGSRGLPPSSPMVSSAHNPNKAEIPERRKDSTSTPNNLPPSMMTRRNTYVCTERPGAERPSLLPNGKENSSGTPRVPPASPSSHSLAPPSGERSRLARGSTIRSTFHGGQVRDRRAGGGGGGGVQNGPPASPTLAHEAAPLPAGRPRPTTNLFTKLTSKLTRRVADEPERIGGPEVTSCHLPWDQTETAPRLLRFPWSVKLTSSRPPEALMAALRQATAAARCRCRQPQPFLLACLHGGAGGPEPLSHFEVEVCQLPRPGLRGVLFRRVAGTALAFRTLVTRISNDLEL
MAP kinase-activated protein kinase 2 (Homo sapiens), sequence (P49137 whole entry, looked up): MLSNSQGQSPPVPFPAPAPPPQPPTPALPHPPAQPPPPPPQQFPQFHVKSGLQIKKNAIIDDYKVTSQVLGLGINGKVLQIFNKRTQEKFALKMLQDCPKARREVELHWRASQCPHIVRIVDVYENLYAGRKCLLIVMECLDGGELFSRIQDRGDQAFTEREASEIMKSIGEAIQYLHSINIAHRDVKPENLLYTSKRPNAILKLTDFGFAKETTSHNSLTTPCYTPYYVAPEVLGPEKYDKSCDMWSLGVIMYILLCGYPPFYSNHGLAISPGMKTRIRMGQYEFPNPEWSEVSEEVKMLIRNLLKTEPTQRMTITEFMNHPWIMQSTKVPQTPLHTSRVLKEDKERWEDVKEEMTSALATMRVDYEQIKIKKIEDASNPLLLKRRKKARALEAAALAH
Rhodopsin kinase GRK7 (Homo sapiens), sequence (Q8WTQ7 whole entry): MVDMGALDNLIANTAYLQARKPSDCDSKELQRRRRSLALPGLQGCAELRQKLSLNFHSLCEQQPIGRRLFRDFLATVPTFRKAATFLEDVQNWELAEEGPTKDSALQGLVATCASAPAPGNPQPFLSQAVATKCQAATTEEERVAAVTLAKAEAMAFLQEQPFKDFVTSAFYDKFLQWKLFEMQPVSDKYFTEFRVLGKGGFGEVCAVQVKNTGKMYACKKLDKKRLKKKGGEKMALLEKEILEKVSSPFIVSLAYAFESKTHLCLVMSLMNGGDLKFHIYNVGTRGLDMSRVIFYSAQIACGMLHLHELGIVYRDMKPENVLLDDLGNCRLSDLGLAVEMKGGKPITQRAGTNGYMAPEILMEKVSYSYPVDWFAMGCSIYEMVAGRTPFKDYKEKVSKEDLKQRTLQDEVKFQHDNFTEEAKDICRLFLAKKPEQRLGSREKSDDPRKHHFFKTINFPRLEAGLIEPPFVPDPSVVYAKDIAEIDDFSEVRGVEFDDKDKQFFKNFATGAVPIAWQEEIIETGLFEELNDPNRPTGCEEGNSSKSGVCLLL
Testis-specific serine/threonine-protein kinase 3 (Homo sapiens), sequence (Q96PN8 whole entry): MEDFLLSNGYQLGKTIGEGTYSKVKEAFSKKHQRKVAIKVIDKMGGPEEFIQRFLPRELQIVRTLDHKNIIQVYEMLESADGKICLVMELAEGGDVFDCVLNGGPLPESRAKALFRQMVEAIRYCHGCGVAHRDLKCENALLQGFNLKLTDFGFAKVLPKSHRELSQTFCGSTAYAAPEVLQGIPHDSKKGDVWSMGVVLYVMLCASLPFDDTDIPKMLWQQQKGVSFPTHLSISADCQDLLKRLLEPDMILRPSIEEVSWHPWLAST

CCCCN(CCCC)C(=O)CN1C[C@@H](c2cc(OC)c3c(c2)OCO3)[C@H](C(=O)O)[C@H]1CC(C)(C)CCC [A-545]
inactive: residual activity [1] 93% | residual activity [2] 100% | inhibition [3] 7.84% | residual activity [4] 78% | residual activity [5] 96.3% | residual activity [6] 99.9% | residual activity [7] 100% | residual activity [8] 99% | residual activity [9] 100% | residual activity [10] 100% | residual activity [11] 75.2% | residual activity [12] 100% | residual activity [13] 96.5% | residual activity [14] 82.4% | residual activity [15] 100% | residual activity [16] 94.5% | residual activity [17] 99.3% | residual activity [18] 100% | residual activity [19] 93.6% | residual activity [20] 95.2% | residual activity [21] 100% | residual activity [22] 100% | residual activity [23] 95.7% | residual activity [24] 97.2% | residual activity [25] 100% | residual activity [26] 100% | residual activity [27] 100% | residual activity [28] 93.3% | residual activity [29] 95.8% | residual activity [30] 88.1% | inhibition [31] 17% | residual activity [32] 100% | residual activity [33] 84.2% | residual activity [34] 100% | inhibition [35] 30.5% | residual activity [36] 90.8% | residual activity [37] 92.4% | residual activity [38] 90.4% | residual activity [39] 100% | residual activity [40] 91% | residual activity [41] 100% | residual activity [42] 75.9% | residual activity [43] 94.4% | residual activity [44] 83.5% | residual activity [45] 82.9%

CCCCN(CCCC)C(=O)CN1C[C@H](c2cc(OC)c3c(c2)OCO3)[C@@H](C(=O)O)[C@@H]1CC(C)(C)CCC [ABT-546]
inactive: residual activity [1] 98.3% | residual activity [2] 56.2% | inhibition [3] 8.83% | residual activity [4] 100% | residual activity [5] 100% | residual activity [6] 100% | residual activity [7] 100% | residual activity [8] 100% | residual activity [9] 100% | residual activity [10] 100% | residual activity [11] 100% | residual activity [12] 100% | residual activity [13] 83% | residual activity [14] 100% | residual activity [15] 100% | residual activity [16] 67.5% | residual activity [17] 60.2% | residual activity [18] 72.9% | residual activity [19] 71.3% | residual activity [20] 80.7% | residual activity [21] 100% | residual activity [22] 100% | residual activity [23] 55.1% | residual activity [24] 75% | residual activity [25] 84.7% | residual activity [26] 100% | residual activity [27] 100% | residual activity [28] 99.3% | residual activity [29] 85.9% | residual activity [30] 88.7% | inhibition [31] -3.57% | residual activity [32] 100% | residual activity [33] 100% | residual activity [34] 100% | inhibition [35] 17% | residual activity [36] 98.3% | residual activity [37] 100% | residual activity [38] 91.6% | residual activity [39] 100% | residual activity [40] 88.6% | residual activity [41] 100% | residual activity [42] 79.8% | residual activity [43] 100% | residual activity [44] 80.2% | residual activity [45] 71.4%
